In this assay the target is T1, MetNI (Escherichia coli, UniProt P30750).
T1 sequence (P30750 1-343): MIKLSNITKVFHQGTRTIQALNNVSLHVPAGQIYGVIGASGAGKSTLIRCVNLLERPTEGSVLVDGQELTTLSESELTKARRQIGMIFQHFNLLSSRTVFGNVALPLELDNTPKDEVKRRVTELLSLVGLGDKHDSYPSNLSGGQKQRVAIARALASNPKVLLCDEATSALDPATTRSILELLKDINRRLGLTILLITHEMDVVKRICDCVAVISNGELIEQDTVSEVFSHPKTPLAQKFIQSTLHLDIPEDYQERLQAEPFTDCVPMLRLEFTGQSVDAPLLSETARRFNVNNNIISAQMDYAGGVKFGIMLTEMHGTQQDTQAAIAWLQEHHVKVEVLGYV
T1 sequence (P31547 1-217 partner): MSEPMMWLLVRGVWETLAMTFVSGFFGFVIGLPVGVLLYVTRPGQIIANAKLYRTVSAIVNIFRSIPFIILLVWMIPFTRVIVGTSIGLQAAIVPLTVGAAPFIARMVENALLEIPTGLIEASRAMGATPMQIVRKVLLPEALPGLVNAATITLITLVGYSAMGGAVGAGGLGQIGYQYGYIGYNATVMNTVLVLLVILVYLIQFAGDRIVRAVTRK
In words: ATPase activity, phosphate production assay. Format: biochemical.

On to `CSCC[C@H](N)C(=O)O` [L-methionine], for which the IC50 was roughly 30 µM.

The term IC50 denotes the midpoint of a concentration-inhibition curve. Low values mean higher potency, high ones lower potency.

Values taken from article PMC2527972 (Science (New York, N.Y.), 2008).
